Measurements from patent US9266904B2, “6-bridged heteroaryldihydropyrimidines for the treatment and prophylaxis of hepatitis B virus infection” (priority 2013, dated 2016).
Like-named read-outs stand apart in the source and are kept apart here.

Assays:
[1] = Cytotoxicity (CCK-8 cell viability) and selectivity index; type: cell-based, human; conditions: human, HepDE19 cells; cytotoxicity, concentration resulting in death of 50% of host cells
From the text: (§1) HepG2.2.15 and HepDE19 are stably-transfected cell lines containing the HBV genome. Both cell lines are derived from the hepatoblastoma cell line Hep G2 (American Type Culture Collection, ATCC® HB-8065™) by the published procedures described in references: M A Selles et al. Proc. Natl. Acad. Sci. USA 1987, 84, 1005-1009 and H Guo et al. Journal of Virology 2007, 81, 12472-12484, respectively. Both cell lines were maintained in Dulbecco's modified Eagle's medium (DMEM)-F12 medium supplemented with 10% fetal bovine serum, 100 U/mL penicillin, 100 μg/mL streptomycin, and 0.5 mg/mL of G418.
(§2) In a cell culture model, apparent antiviral activity of a compound can be the result of host cell death after exposure to the compound. To determine whether the anti-HBV effect of a test compound is due to cytotoxicity, HepDE19 cells were seeded into 96-well plates (5×10^3 cells per well) and treated with compounds as described above for EC50 determination. Five days after treatment, cell viability was measured by addition of 20 μL of CCK-8 reagent. Two hours after incubation at 37° C., the absorbance at wavelengths of 450 nm and 630 nm (OD450 and OD630) was recorded by a plate reader. The concentration results in the death of 50% of the host cells (CC50) of each compound was determined (See Table 5).

HepDE19 cells = assay: as above; type: cell-based, human; conditions: CC50 value/EC50 value
From the text: as §1, §2

[2] = test system: HBV replication in HepG2.2.15 cells; assay: Anti-HBV activity in vitro in HepG2.2.15 cells (extracellular HBV DNA by qPCR); type: cell-based; conditions: Hepatitis B virus
Summary of the method: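 EC50 is derived from qPCR of extracellular viral DNA in culture supernatant after 5-day compound exposure. Cells (HepG2.2.15, stably carrying the HBV genome) were plated and incubated overnight at 37 °C before half-log dilution series were added at 0.5% final DMSO.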

[3] = Human microsomal clearance assay; type: in vitro ADME; conditions: human, 1 μM, pH 7.4
Summary of the method: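 Liver microsomes (0.5 mg/mL protein) were incubated with 1 μM compound at 37 °C, pH 7.4 phosphate, with an NADPH-regenerating system. Samples at 0-30 min were quenched and measured by LC-MS/MS for parent loss. No-NADPH controls were included.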

[4] = HepG2.2.15, Anti-HBV activity in HepG2.2.15 cells, read-out: EC50

SMILES | CC50 at 5 days [1] [nM] | Selectivity index (CC50/EC50) (HepDE19 cells) | EC50 [2, 4] [nM] | CLh [3] [mL/min/kg] | EC50 ([2]; HepG2.2.15) [nM]
CCOC(=O)C1=C(CN2C3COCC2C(F)(F)[C@H](CC(=O)O)C3)NC(c2nccs2)=N[C@H]1c1ccc(F)c(F)c1C (stereo partly drawn) [Example 128, 2-[(7S)-9-[[(4S)-4-(3,4-difluoro-2-methyl-phenyl)-5-ethoxycarbonyl-2-thiazol-2-yl-1,4-dihydropyrimidin-6-yl]methyl]-6,6-difluoro-3-oxa-9-azabicyclo[3.3.1]nonan-7-yl]acetic acid] | 35000 | 14056 | 2.5 | 3.8 | –
CCOC(=O)CC1(NS(C)(=O)=O)CC2COCC(C1)N2CC1=C(C(=O)OC)[C@H](c2ccc(F)cc2Cl)N=C(c2nccs2)N1 (stereo partly drawn) [Example 146, Methyl (4R)-4-(2-chloro-4-fluoro-phenyl)-6-[[7-(2-ethoxy-2-oxo-ethyl)-7-(methanesulfonamido)-3-oxa-9-azabicyclo[3.3.1]nonan-9-yl]methyl]-2-thiazol-2-yl-1,4-dihydropyrimidine-5-carboxylate] | > 100000 | >200000 | 0.5 | – | –
COC(=O)C1=C(CN2C3COCC2CN(S(N)(=O)=O)C3)NC(c2nccs2)=N[C@H]1c1ccc(F)cc1Cl [Example 19, (R)-4-(2-Chloro-4-fluoro-phenyl)-6-(7-sulfamoyl-3-oxa-7,9-diaza-bicyclo[3.3.1]non-9-ylmethyl)-2-thiazol-2-yl-1,4-dihydro-pyrimidine-5-carboxylic acid methyl ester] | 58000 | 16571 | 4 | 4.6 | –
COC(=O)C1=C(CN2C3COCC2CN(S(C)(=O)=O)C3)NC(c2nccs2)=N[C@H]1c1ccc(F)cc1Cl [Example 11, (R)-4-(2-Chloro-4-fluoro-phenyl)-6-(7-methanesulfonyl-3-oxa-7,9-diaza-bicyclo[3.3.1]non-9-ylmethyl)-2-thiazol-2-yl-1,4-dihydro-pyrimidine-5-carboxylic acid methyl ester] | > 100000 | >15152 | 6.6 | 9.0 | –
COC(=O)C1=C(CN2C3COCC2C(F)(F)C3)NC(c2nccs2)=N[C@H]1c1ccc(F)cc1Cl (stereo partly drawn) [Example 108, Methyl (4R)-4-(2-chloro-4-fluorophenyl)-6-[(6,6-difluoro-3-oxa-8-azabicyclo[3.2.1]octan-8-yl)methyl]-2-(1,3-thiazol-2-yl)-1,4-dihydropyrimidine-5-carboxylate] | 74000 | 9953 | 7.4 | – | –
COC(=O)C1=C(CN2[C@@H]3COC[C@H]2CC2(C3)N=N2)NC(c2nccs2)=N[C@H]1c1ccc(F)cc1Cl [Example 43, (R)-6-(7-Diazirine-3-oxa-9-aza-bicyclo[3.3.1]non-9-ylmethyl)-4-(2-chloro-4-fluoro-phenyl)-2-thiazol-2-yl-1,4-dihydro-pyrimidine-5-carboxylic acid methyl ester] | 43000 | 14845 | 3 | – | –
CCOC(=O)C(O)C1(O)CC2COCC(C1)N2CC1=C(C(=O)OC)[C@H](c2ccc(F)cc2Cl)N=C(c2nccs2)N1 (stereo partly drawn) [Example 137, Methyl (4R)-4-(2-chloro-4-fluoro-phenyl)-6-[[7-(2-ethoxy-1-hydroxy-2-oxo-ethyl)-7-hydroxy-3-oxa-9-azabicyclo[3.3.1]nonan-9-yl]methyl]-2-thiazol-2-yl-1,4-dihydropyrimidine-5-carboxylate] | 55000 | 17031 | 3.2 | – | –
COC(=O)C1=C(CN2C3COCC2c2conc2C3)NC(c2nccs2)=N[C@H]1c1ccc(F)cc1Cl (stereo partly drawn) [Example 104, (4R)-4-(2-Chloro-4-fluoro-phenyl)-6-(4,10-dioxa-5,12-diaza-tricyclo[6.3.1.0*2,6*]dodeca-2,5-dien-12-ylmethyl)-2-thiazol-2-yl-1,4-dihydro-pyrimidine-5-carboxylic acid methyl ester] | 44000 | 9079 | 4.8 | – | –
COC(=O)C1=C(CN2C3COCC2CC(O)C3)NC(c2nccs2)=N[C@H]1c1ccc(F)cc1Cl (stereo partly drawn) [Example 7, (R)-4-(2-Chloro-4-fluoro-phenyl)-6-(7-hydroxy-3-oxa-9-aza-bicyclo[3.3.1]non-9-ylmethyl)-2-thiazol-2-yl-1,4-dihydro-pyrimidine-5-carboxylic acid methyl ester] | > 100000 | >8333 | 12 | – | –
COC(=O)C1=C(CN2C3COCC2c2[nH]ncc23)NC(c2nccs2)=N[C@H]1c1ccc(F)cc1Cl (stereo partly drawn) [Example 45, (R)-4-(2-Chloro-4-fluoro-phenyl)-6-(9-oxa-3,4,11-triaza-tricyclo[5.3.1.0*2,6*]undeca-2(6),4-dien-11-ylmethyl)-2-thiazol-2-yl-1,4-dihydro-pyrimidine-5-carboxylic acid methyl ester] | 43000 | 85280 | 0.5 | – | –
COC(=O)C1=C(CN2C3COCC2CN(CC(F)F)C3)NC(c2nccs2)=N[C@H]1c1ccc(F)cc1Cl [Example 14, (R)-4-(2-Chloro-4-fluoro-phenyl)-6-[7-(2,2-difluoro-ethyl)-3-oxa-7,9-diaza-bicyclo[3.3.1]non-9-ylmethyl]-2-thiazol-2-yl-1,4-dihydro-pyrimidine-5-carboxylic acid methyl ester] | > 100000 | >7692 | 13 | – | –
CCOC(=O)CC1(NC(=O)C(F)(F)F)CC2COCC(C1)N2CC1=C(C(=O)OC)[C@H](c2ccc(F)cc2Cl)N=C(c2nccs2)N1 (stereo partly drawn) [Example 147, Methyl (4R)-4-(2-chloro-4-fluoro-phenyl)-6-[[7-(2-ethoxy-2-oxo-ethyl)-7-[(2,2,2-trifluoroacetyl)amino]-3-oxa-9-azabicyclo[3.3.1]nonan-9-yl]methyl]-2-thiazol-2-yl-1,4-dihydropyrimidine-5-carboxylate] | > 100000 | >111111 | – | – | 0.9
COC(=O)C1=C(CN2C3COCC2c2cnoc2C3)NC(c2nccs2)=N[C@H]1c1ccc(F)cc1Cl (stereo partly drawn) [Example 105, (4R)-4-(2-Chloro-4-fluoro-phenyl)-6-(5,10-dioxa-4,12-diaza-tricyclo[6.3.1.0*2,6*]dodeca-2(6),3-dien-12-ylmethyl)-2-thiazol-2-yl-1,4-dihydro-pyrimidine-5-carboxylic acid methyl ester] | 33000 | 12041 | 2.7 | – | –
COC(=O)C1=C(CN2C3COCC2C(F)(F)c2[nH]ncc23)NC(c2nccs2)=N[C@H]1c1ccc(F)cc1Cl (stereo partly drawn) [Example 107, (R)-4-(2-Chloro-4-fluoro-phenyl)-6-(7,7-difluoro-10-oxa-4,5,12-triaza-tricyclo[6.3.1.0*2,6*]dodeca-2(6),3-dien-12-ylmethyl)-2-thiazol-2-yl-1,4-dihydro-pyrimidine-5-arboxylic acid methyl ester] | 26000 | 12495 | 2.1 | – | –
COC(=O)C1=C(CN2C3COCC2CN(C(=O)OC)C3)NC(c2nccs2)=N[C@H]1c1ccc(F)cc1Cl [Example 17, 9-[(R)-6-(2-Chloro-4-fluoro-phenyl)-5-methoxycarbonyl-2-thiazol-2-yl-3,6-dihydro-pyrimidin-4-ylmethyl]-3-oxa-7,9-diaza-bicyclo[3.3.1]nonane-7-carboxylic acid methyl ester] | 50000 | 11628 | 4 | – | –
